In ChEMBL document CHEMBL4483862, “Open-source discovery of chemical leads for next-generation chemoprotective antimalarials” (2018):

Test system: Plasmodium berghei
Assay: Luciferase/luciferin-expressing antifolate-resistant parasites were used to infect a culture of HepG2 cells that were pre-incubated with compounds. Infected hepatocytes emit light due to the luciferase reaction. Assay results are presented as the percent inhibition of light emission compared to control. […]
Assay type: functional
Details: sporozoite; for IC90: read-out: LUCIFERASE INFECTION ASSAY - IC90
[1] = read-out: LUCIFERASE INFECTION ASSAY - IC50

Compound | IC90 | other results
O=C(NNC1=NN(c2ccccc2)c2ccc(Br)cc2N1)c1ccc(F)cc1 | > 10 µM | IC50 (FFLUC_HILL_SLOPE 3.33, FFLUC_R_SQUARED 0.811, read-out: LUCIFERASE INFECTION ASSAY - IC50): > 10 µM
CC(C)(C)Nc1ncnc2sc(-c3ccccc3)cc12 | > 10 µM | IC50 (PBLUC_HILL_SLOPE 1.75, PBLUC_R_SQUARED 0.697, read-out: LUCIFERASE INFECTION ASSAY - IC50): 4.97 µM
Cc1ccc(NC(=S)N/N=C2\C(=O)Nc3c(C)cc(C)cc32)c(C)c1 | 3.68 µM | IC50 [1]: 3.03 µM
CCC(C)(C)c1ccc(OCC(=O)Nc2cccc(-c3nc(C)sc3C(=O)Nc3cc(Cl)ccc3Cl)c2)c(C(C)(C)CC)c1 | > 10 µM | IC50 [1]: > 10 µM
CN(C)CCNc1cc(-c2cccs2)nc2ccccc12 | 4.22 µM | IC50 (HEPG2TOX_HILL_SLOPE 9.05, HEPG2TOX_R_SQUARED 0.795, PBLUC_HILL_SLOPE 12.9, PBLUC_R_SQUARED 0.598, read-out: LUCIFERASE INFECTION ASSAY - IC50): 3.56 µM
Cn1ccnc1C(=O)NNc1ncc(C(F)(F)F)cc1Cl | 1.21 µM | IC50 (HEPG2TOX_HILL_SLOPE 1.64, HEPG2TOX_R_SQUARED 0.948, PBLUC_HILL_SLOPE 15.2, PBLUC_R_SQUARED 0.698, read-out: LUCIFERASE INFECTION ASSAY - IC50): 1.04 µM
O=C(Nc1cccc(CNc2ccnc3cc(Cl)ccc23)c1)C1CC1 | > 10 µM | IC50 (PBLUC_HILL_SLOPE 2.98, PBLUC_R_SQUARED 0.123, read-out: LUCIFERASE INFECTION ASSAY - IC50): 5.8 µM
CC(=O)c1cccc(-c2cnc3ccc(-c4ccoc4)nn23)c1 | 6.77 µM | IC50 (HEPG2TOX_HILL_SLOPE 0.314, HEPG2TOX_R_SQUARED 0.72, PBLUC_HILL_SLOPE 2.12, PBLUC_R_SQUARED 0.552, read-out: LUCIFERASE INFECTION ASSAY - IC50): 2.41 µM
O=C(Cn1ncc(Cl)c(Cl)c1=O)Nc1ccc(F)c(F)c1F | 9.46 µM | IC50 (HEPG2TOX_HILL_SLOPE 271, HEPG2TOX_R_SQUARED 0.59, PBLUC_HILL_SLOPE 12.5, PBLUC_R_SQUARED 0.106, read-out: LUCIFERASE INFECTION ASSAY - IC50): 7.93 µM
O=C(N/N=C/c1ccc(O)cc1O)c1ccc[n+]([O-])c1 | 0.362 µM | IC50 (PBLUC_HILL_SLOPE 3, PBLUC_R_SQUARED 0.854, read-out: LUCIFERASE INFECTION ASSAY - IC50): 0.174 µM
Cc1ccc(S(=O)(=O)NN(C)c2nc3ccccc3nc2C(F)(F)F)cc1 | 3.01 µM | IC50 (HEPG2TOX_HILL_SLOPE 2.57, HEPG2TOX_R_SQUARED 0.987, PBLUC_HILL_SLOPE 18.2, PBLUC_R_SQUARED 0.483, read-out: LUCIFERASE INFECTION ASSAY - IC50): 2.66 µM
Cc1ccc(-n2c(C)cc(C3=NN=C(NC4CC4)SC3)c2C)cc1C | 3.59 µM | –
CSc1nc(Sc2nnc(-c3ccc(C(C)(C)C)cc3)[nH]2)cc(Sc2nnc(-c3ccc(C(C)(C)C)cc3)[nH]2)n1 | > 5.6 µM | IC50 (PBLUC_HILL_SLOPE 11.3, PBLUC_R_SQUARED 0.117, read-out: LUCIFERASE INFECTION ASSAY - IC50): 5.38 µM
CCOc1ccc(C(=O)COC(=O)c2c3ccccc3cc3ccccc23)cc1 | > 10 µM | IC50 [1]: > 10 µM
O=C(COC(=O)C1(c2ccccc2F)CCCC1)NC1CCCCCCC1 | > 10 µM | IC50 (PBLUC_HILL_SLOPE 12.1, PBLUC_R_SQUARED 0.29, read-out: LUCIFERASE INFECTION ASSAY - IC50): > 10 µM
COCOc1ccc(-c2cc(-c3ccc(N)nc3)cnc2N)cc1 | 3.91 µM | IC50 (PBLUC_HILL_SLOPE 17.1, PBLUC_R_SQUARED 0.834, read-out: LUCIFERASE INFECTION ASSAY - IC50): 3.44 µM
O=C1CN(C(=O)CSC2=N/C(=C/c3ccccc3)C(=O)N2c2ccc(F)cc2)c2ccccc2N1 | > 10 µM | IC50 [1]: > 10 µM
O=C(Nc1nonc1-c1cccs1)c1sc2ccccc2c1Cl | 3.36 µM | IC50 (HEPG2TOX_HILL_SLOPE 3.76, HEPG2TOX_R_SQUARED 0.735, PBLUC_HILL_SLOPE 21.7, PBLUC_R_SQUARED 0.795, read-out: LUCIFERASE INFECTION ASSAY - IC50): 3.04 µM
C/C=C(/C(=C/C)c1ccc(O)cc1)c1ccc(O)cc1 [DIENESTROL] | > 12.4 µM | IC50 (FFLUC_HILL_SLOPE 1.35, FFLUC_R_SQUARED 0.489, HEPG2TOX_HILL_SLOPE 1.17, HEPG2TOX_R_SQUARED 0.908, PBLUC_HILL_SLOPE 0.733, PBLUC_R_SQUARED 0.69, read-out: LUCIFERASE INFECTION ASSAY - IC50): 1.24 µM

Compound | IC90 | other results
CCN(CC)CCNC(=O)c1ccc(-c2ccccc2)cc1 | > 11.1 µM | IC50 (PBLUC_HILL_SLOPE 0.701, PBLUC_R_SQUARED 0.65, read-out: LUCIFERASE INFECTION ASSAY - IC50): 5.34 µM
CC(OC(=O)c1cccc(Cl)c1N)C(=O)N(C(C)C)C(C)C (stereo not given) | > 10 µM | IC50 [1]: > 10 µM
CN(C)C(=O)CC(NC(=O)Nc1ccc(F)cc1F)c1ccccc1 (stereo not given) | > 10 µM | IC50 [1]: > 10 µM
Nc1c(C(=O)c2ccc(Cl)cc2)sc(NCc2ccco2)c1C(=O)Nc1cc(Cl)ccc1Cl | 4.4 µM | IC50 (FFLUC_HILL_SLOPE 2.13, FFLUC_R_SQUARED 0.528, HEPG2TOX_HILL_SLOPE 16.1, HEPG2TOX_R_SQUARED 0.784, PBLUC_HILL_SLOPE 2.08, PBLUC_R_SQUARED 0.686, read-out: LUCIFERASE INFECTION ASSAY - IC50): 1.53 µM
O=[N+]([O-])c1cccc(OCC(O)CN2CCN(Cc3nc(-c4ccc(Cl)cc4)no3)CC2)c1 (stereo not given) | > 10 µM | IC50 (HEPG2TOX_HILL_SLOPE 10.3, HEPG2TOX_R_SQUARED 0.223, PBLUC_HILL_SLOPE 2.57, PBLUC_R_SQUARED 0.732, read-out: LUCIFERASE INFECTION ASSAY - IC50): 4.59 µM
O=[N+]([O-])c1cc2c(c(Cn3c(COc4ccc(Cl)cc4Cl)nc4ccccc43)c1)OCOC2 | 7.34 µM | IC50 (FFLUC_HILL_SLOPE 4.75, FFLUC_R_SQUARED 0.0792, PBLUC_HILL_SLOPE 3.98, PBLUC_R_SQUARED 0.767, read-out: LUCIFERASE INFECTION ASSAY - IC50): 4.23 µM
CC(C)Cc1nc2oc3c(NCC4CCCO4)ncnc3c2c2c1CCC2 (stereo not given) | 4.52 µM | IC50 (PBLUC_HILL_SLOPE 12.2, PBLUC_R_SQUARED 0.0912, read-out: LUCIFERASE INFECTION ASSAY - IC50): 3.77 µM
O=C(c1ccc2nc[nH]c2c1)N1CCc2nc(NCc3cccc(Oc4ccccc4)c3)ncc2C1 | > 6.92 µM | IC50 (HEPG2TOX_HILL_SLOPE 1.36, HEPG2TOX_R_SQUARED 0.938, PBLUC_HILL_SLOPE 1.78, PBLUC_R_SQUARED 0.322, read-out: LUCIFERASE INFECTION ASSAY - IC50): 2.4 µM
NS(=O)(=O)c1ccc(CNc2ccc3ncc(-c4ccc(Cl)cc4)n3n2)cc1 | 1.19 µM | IC50 (HEPG2TOX_HILL_SLOPE 1.64, HEPG2TOX_R_SQUARED 0.894, PBLUC_HILL_SLOPE 9.33, PBLUC_R_SQUARED 0.776, read-out: LUCIFERASE INFECTION ASSAY - IC50): 0.942 µM
Cc1sc2ncnc(SCC(=O)N3N=C4/C(=C/c5ccccc5)CCCC4C3c3ccccc3)c2c1C (stereo not given) | > 10 µM | IC50 (HEPG2TOX_HILL_SLOPE 0.257, HEPG2TOX_R_SQUARED 0.0474, read-out: LUCIFERASE INFECTION ASSAY - IC50): > 10 µM
Cc1cccc(-c2cn3c(-c4ccc(C#N)cc4)cnc3cn2)c1C | 8.03 µM | IC50 (PBLUC_HILL_SLOPE 3.65, PBLUC_R_SQUARED 0.571, read-out: LUCIFERASE INFECTION ASSAY - IC50): 4.4 µM
O=C(Nc1nonc1-c1ccc(F)cc1)c1sc2ccccc2c1Cl | 7.47 µM | IC50 (HEPG2TOX_HILL_SLOPE 12, HEPG2TOX_R_SQUARED 0.71, PBLUC_HILL_SLOPE 5.14, PBLUC_R_SQUARED 0.171, read-out: LUCIFERASE INFECTION ASSAY - IC50): 4.87 µM
O=c1c2cc(Cl)cc(Cl)c2nc(-c2cccc(C(F)(F)F)c2)n1O | > 8.8 µM | IC50 (HEPG2TOX_HILL_SLOPE 1.01, HEPG2TOX_R_SQUARED 0.454, PBLUC_HILL_SLOPE 14.5, PBLUC_R_SQUARED 0.382, read-out: LUCIFERASE INFECTION ASSAY - IC50): 8.11 µM
Cc1cc(C)c(C)c(S(=O)(=O)N2CCC(C(=O)Nc3cc(S(=O)(=O)Nc4ccc(Cl)cc4)ccc3N3CCOCC3)CC2)c1C | 3.69 µM | IC50 (FFLUC_HILL_SLOPE 3.74, FFLUC_R_SQUARED 0.802, PBLUC_HILL_SLOPE 15.7, PBLUC_R_SQUARED 0.403, read-out: LUCIFERASE INFECTION ASSAY - IC50): 3.21 µM
NC(=O)c1ccc(Nc2nc(-c3cccnc3)nc3ccccc23)cc1 | > 10 µM | IC50 (PBLUC_HILL_SLOPE 4.21, PBLUC_R_SQUARED 0.0982, read-out: LUCIFERASE INFECTION ASSAY - IC50): > 10 µM
Cc1ccc(C(=O)/C=C/C(=O)c2ccc(C)cc2)cc1 | > 10 µM | IC50 (FFLUC_HILL_SLOPE 1.4, FFLUC_R_SQUARED 0.731, read-out: LUCIFERASE INFECTION ASSAY - IC50): > 10 µM
O=[N+]([O-])c1cnc(Sc2ccc(C(F)(F)F)cn2)s1 | 10.5 µM | IC50 (FFLUC_HILL_SLOPE 78.7, FFLUC_R_SQUARED 0.547, HEPG2TOX_HILL_SLOPE 11.7, HEPG2TOX_R_SQUARED 0.958, PBLUC_HILL_SLOPE 15.1, PBLUC_R_SQUARED 0.404, read-out: LUCIFERASE INFECTION ASSAY - IC50): 9.04 µM
COc1cc(OC)cc(-c2cnc3cnc(-c4ccc(CO)cc4)cn23)c1 | > 9.13 µM | IC50 (HEPG2TOX_HILL_SLOPE 5.84, HEPG2TOX_R_SQUARED 0.257, PBLUC_HILL_SLOPE 9, PBLUC_R_SQUARED 0.405, read-out: LUCIFERASE INFECTION ASSAY - IC50): 7.72 µM
CC(C)(C)c1ccc(OS(=O)(=O)c2ccc(Oc3c(Cl)cccc3[N+](=O)[O-])cc2)cc1 | > 7.14 µM | IC50 [1]: > 7.14 µM
